Measured values published in the NIST ThermoML archive (doi:10.1021/acs.jced.7b01035).
Numbers after ± are expanded uncertainties.

Experiment: wn = mass fraction of the nth substance listed
Conditions: 500 kPa, Liquid, Concentric cylinders viscometry

NCCCO [3-amino-1-propanol] + O
viscosity [mPa·s]
Conditions | w1 = 0.1 | w1 = 0.2 | w1 = 0.3 | w1 = 0.4 | w1 = 0.5 | w1 = 0.6 | w1 = 0.7 | w1 = 0.8 | w1 = 0.9 | w1 = 1
298.15 K | 1.27 ± 0.32 | 1.84 ± 0.34 | 2.95 ± 0.42 | 4.76 ± 0.55 | 7.58 ± 0.8 | 12.17 ± 1.1 | 18.56 ± 1.4 | 26.23 ± 1.1 | 29.26 ± 0.53 | 30.43 ± 0.33
303.15 K | 1.14 ± 0.32 | 1.62 ± 0.33 | 2.5 ± 0.38 | 3.97 ± 0.48 | 6.18 ± 0.64 | 9.64 ± 0.89 | 14.5 ± 1.2 | 20.98 ± 0.88 | 22.76 ± 0.43 | 23.87 ± 0.32
308.15 K | 1.01 ± 0.31 | 1.41 ± 0.32 | 2.15 ± 0.36 | 3.34 ± 0.42 | 5.1 ± 0.53 | 7.69 ± 0.71 | 11.48 ± 0.86 | 15.73 ± 0.72 | 17.96 ± 0.46 | 19.07 ± 0.31
313.15 K | 0.89 ± 0.31 | 1.25 ± 0.31 | 1.82 ± 0.34 | 2.82 ± 0.39 | 4.23 ± 0.46 | 6.25 ± 0.58 | 9.21 ± 0.7 | 12.52 ± 0.6 | 14.36 ± 0.41 | 15.27 ± 0.31
318.15 K | 0.81 ± 0.31 | 1.12 ± 0.31 | 1.59 ± 0.33 | 2.42 ± 0.36 | 3.59 ± 0.41 | 5.17 ± 0.49 | 7.5 ± 0.58 | 10.09 ± 0.51 | 11.6 ± 0.38 | 12.36 ± 0.31
323.15 K | 0.75 ± 0.3 | 1.01 ± 0.31 | 1.4 ± 0.32 | 2.11 ± 0.34 | 3.07 ± 0.37 | 4.34 ± 0.43 | 6.17 ± 0.49 | 8.24 ± 0.45 | 9.47 ± 0.36 | 10.22 ± 0.3
328.15 K | 0.72 ± 0.3 | 0.92 ± 0.3 | 1.24 ± 0.31 | 1.86 ± 0.33 | 2.65 ± 0.35 | 3.69 ± 0.39 | 5.14 ± 0.43 | 6.81 ± 0.4 | 7.78 ± 0.35 | 8.54 ± 0.3
333.15 K | 0.66 ± 0.3 | 0.84 ± 0.3 | 1.1 ± 0.31 | 1.66 ± 0.32 | 2.31 ± 0.34 | 3.17 ± 0.36 | 4.33 ± 0.39 | 5.68 ± 0.37 | 6.47 ± 0.33 | 7.12 ± 0.3
338.15 K | 0.61 ± 0.3 | 0.76 ± 0.3 | 0.99 ± 0.31 | 1.47 ± 0.32 | 2.03 ± 0.33 | 2.74 ± 0.34 | 3.67 ± 0.36 | 4.79 ± 0.35 | 5.43 ± 0.33 | 6.05 ± 0.3
343.15 K | 0.58 | 0.73 ± 0.3 | 0.9 ± 0.31 | 1.32 ± 0.31 | 1.81 ± 0.32 | 2.39 ± 0.33 | 3.15 ± 0.34 | 4.08 ± 0.33 | 4.61 ± 0.31 | 4.84 ± 0.3
348.15 K | 0.57 | 0.7 ± 0.3 | 0.82 ± 0.3 | 1.2 ± 0.31 | 1.64 ± 0.31 | 2.09 ± 0.32 | 2.72 ± 0.33 | 3.51 ± 0.32 | 3.93 ± 0.31 | 4.17 ± 0.3
353.15 K | 0.55 | 0.67 ± 0.3 | 0.75 ± 0.3 | 1.08 ± 0.31 | 1.46 ± 0.31 | 1.85 ± 0.31 | 2.37 ± 0.32 | 3.03 ± 0.32 | 3.39 ± 0.31 | 3.63 ± 0.3
358.15 K | 0.41 | 0.54 | 0.69 ± 0.3 | 0.99 ± 0.31 | 1.32 ± 0.31 | 1.68 ± 0.31 | 2.09 ± 0.32 | 2.7 ± 0.31 | 2.93 ± 0.3 | 3.19 ± 0.3
363.15 K | 0.39 | 0.49 | 0.65 ± 0.3 | 0.93 ± 0.31 | 1.25 ± 0.31 | 1.51 ± 0.31 | 1.86 ± 0.31 | 2.4 ± 0.31 | 2.56 ± 0.3 | 2.73 ± 0.3
368.15 K | 0.37 | 0.47 | 0.63 ± 0.3 | 0.88 ± 0.3 | 1.16 ± 0.3 | 1.37 ± 0.3 | 1.66 ± 0.31 | 2.13 ± 0.31 | 2.24 ± 0.3 | 2.52 ± 0.3
373.15 K | 0.35 | 0.44 | 0.59 | 0.82 ± 0.3 | 1.05 ± 0.3 | 1.26 ± 0.3 | 1.49 ± 0.31 | 1.91 ± 0.3 | 1.98 ± 0.3 | 2.25 ± 0.3
